Experimental data taken from patent US9458120B2, “Phenoxypropanol derivative and pharmaceutical composition including the same” (KOREA INSTITUTE OF SCIENCE AND TECHNOLOGY, priority 2011, dated 2016).

How the values were obtained:
[1] = target: α1G T-type calcium channel (Homo sapiens, UniProt O43497); experiment: Assay for T-type calcium channel inhibition activity (FDSS6000 calcium imaging, KCl activation); assay type: cell-based; conditions: 75 s pre-treatment then KCl 75 mM, HEK293 cells expressing α1G T-type calcium channel and Kir2.1
Description: At 12-24 hours before the assay for T-type calcium channel activity, cells of HEK293 cell line (α1G cell line: KCTC 10519BP, GenBank, Korea Research Institute of Bioscience and Biotechnology) which stably express α1G T-type calcium channel and Kir2.1, were sub-cultured in a poly-L-lysine (0.05 mg/ml) treated 96-well plate with the density of 4×10^4 per a well using a 96-well cell dispenser (Titertek). On the day of assay, the 96-well plate to which the cells were attached were washed three times with a HEPES buffer solution (unit mM: 150 NaCl, 5 KCl, 1 MgCl2, 2 CaCl2, 10 HEPES, 10 glucose, pH 7.4) using a 96-well plate automatic washing device (Bio Tek), and then reacted with a HEPES buffer solution containing 5 μM fluo-3/AM and 0.001% (w/v) Pluronic F-127 at room temperature for 1 hour, to label with fluorescent dye, and then further washed twice with the HEPES buffer solution. Thereafter, at 10 minutes before the measurement using a FDSS6000 device, a washing with a HEPES buffer solution containing 10 mM CaCl2 was conducted once more, and the final volume was adjusted to 81 μl. Besides the above 96-well plate containing the cells, additional two 96-well drug plates were provided, in which the 96-well plates contained KCl (final concentration: 75 mM) for activating T-type calcium channel and a blocker drug, respectively.
Since most of cell-based HTS (High throughput screening) devices are equipped with a liquid application system for drug injection, but have no liquid sucking system, the blocker drug to be tested and KCl were respectively provided at the five-times higher concentration in 10 mM CaCl2 HEPES buffer solution at the amount of 27 μl, diluted five-times at the final cell plate volume of 135 μl, and then used in this test. In this Experimental Example, therefore, FDSS6000 (Hamamatsu Photonics) was used as an alternative to HTS device.
Specific FDSS6000 measurement conditions are as follows: After recording the reference value of 20 seconds, the change of intracellular calcium concentration which induced by pre-treatment of the drug (the prepared […]) for 75 seconds followed by administration of KCl was measured, in which the percentage (%) inhibition effect of the test drug was determined, through estimating the area of ratio value of 340/380 in the control without treatment of the test drug as 100%. As a reference drug, 10 μM of mibefradil was always used.
For accurate calcium-imagination, the light sources of 4 xenon lamps in FDSS6000 were radiated to make the cells exposed selectively to the excitation wavelength (340 nm and 380 nm) by computer-controlled filter wheel. Data was obtained at interval of each 1.23 second. The emitter fluorescence light inflow through a 515 nm long-pass filter was obtained as an average 340/380 ratio value for each well in the 96-wells by a cooled CCD camera and digital fluorescence analyzer in the device. All image data and analysis were obtained by using a FDSS6000-exclusive program provided by Hamamatsu Photonics, as described above.

TREK-1 channel = target: T1, TREK-1 channel (Rattus norvegicus, UniProt Q920B6); experiment: Assay for TREK channel inhibition activity (whole cell patch clamp recording, COS7 cell transfected with GFP-rTREK-1); assay type: cell-based; conditions: COS7 cells, GFP-rTREK-1, whole-cell patch clamp; for inhibition at 101 µM: COS-7, Table 3 (value ± spread), 101 μM [sic], read-out: block % at 101 μM; for inhibition at 10 µM: COS-7, Table 2, read-out: block % at 10 μM
T1 construct: expressed in transfected cells; host or cells: COS7 (Korean Cell Line Bank), transient transfection with Effectene
T1 sequence (Q920B6 1-426): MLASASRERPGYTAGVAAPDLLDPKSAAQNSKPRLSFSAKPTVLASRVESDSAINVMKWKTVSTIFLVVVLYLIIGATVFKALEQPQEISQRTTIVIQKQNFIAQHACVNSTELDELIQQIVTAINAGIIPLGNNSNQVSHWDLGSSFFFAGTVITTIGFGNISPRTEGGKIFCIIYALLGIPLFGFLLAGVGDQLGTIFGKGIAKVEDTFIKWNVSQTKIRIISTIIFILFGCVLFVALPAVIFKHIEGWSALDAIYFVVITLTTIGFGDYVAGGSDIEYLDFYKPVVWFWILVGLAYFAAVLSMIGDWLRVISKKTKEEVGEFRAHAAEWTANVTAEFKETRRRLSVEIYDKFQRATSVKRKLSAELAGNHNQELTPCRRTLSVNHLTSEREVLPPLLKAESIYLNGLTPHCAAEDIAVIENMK
Description: The inhibition activity of the compound of the present invention against TREK-1 channel was measured by measuring the physiological activity by whole cell patch clamp recording.
COS7 cell (obtained from Korean Cell Line Bank (KCLB)) was transfected with GFP-rTREK-1 gene (accession number: AY727922) using an Effectene transfection reagent (Qiagen), and cultured for 24 hours in an incubator at 37° C. As a culture medium, Dulbecco's modified Eagle's medium (DMEM, GIBCO products from Invitrogen) containing 10% by weight of fetal bovine serum (FBS) and 1% by weight of penicillin/streptomycin (5000 unit/ml) was used. The cells thus prepared were adhered on a cover glass, which was placed on a chamber, and then a recording solution (150 mM NaCl, 10 mM HEPES, 10 mM KCl, 2 mM CaCl2, 5.5 mM D-Glucose, all reagents were purchased from Sigma) was applied. A glass microelectrode was filled with an intracellular solution prepared with the composition of 150 mM KCl, 5 mM EGTA, 10 mM HEPES, 0.5 mM CaCl2, 1 mM MgCl2, 4 mM Mg-ATP, and 0.3 mM Na-GTP (all reagents were purchased from Sigma), followed by whole-cell patch clamp recording. The voltage was fixed at −70 mV using a Digidata 1322A data acquisition system (Molecular Devices) and an Axopatch 200A amplifier (Axon Instruments), and the current generated by applying a voltage ramp from −100 mV to +100 mV for 1 second was measured using a Clampex9.2 program. A difference between the current values measured at +100 mV and −100 mV was defined as a current in the above experiment. The currents before and after blocker treatment were measured so as to determine the inhibition activity.
Block %=100−(current after blocker treatment/current before blocker treatment)*100

α1G T-type calcium channel, sequence (O43497 whole entry): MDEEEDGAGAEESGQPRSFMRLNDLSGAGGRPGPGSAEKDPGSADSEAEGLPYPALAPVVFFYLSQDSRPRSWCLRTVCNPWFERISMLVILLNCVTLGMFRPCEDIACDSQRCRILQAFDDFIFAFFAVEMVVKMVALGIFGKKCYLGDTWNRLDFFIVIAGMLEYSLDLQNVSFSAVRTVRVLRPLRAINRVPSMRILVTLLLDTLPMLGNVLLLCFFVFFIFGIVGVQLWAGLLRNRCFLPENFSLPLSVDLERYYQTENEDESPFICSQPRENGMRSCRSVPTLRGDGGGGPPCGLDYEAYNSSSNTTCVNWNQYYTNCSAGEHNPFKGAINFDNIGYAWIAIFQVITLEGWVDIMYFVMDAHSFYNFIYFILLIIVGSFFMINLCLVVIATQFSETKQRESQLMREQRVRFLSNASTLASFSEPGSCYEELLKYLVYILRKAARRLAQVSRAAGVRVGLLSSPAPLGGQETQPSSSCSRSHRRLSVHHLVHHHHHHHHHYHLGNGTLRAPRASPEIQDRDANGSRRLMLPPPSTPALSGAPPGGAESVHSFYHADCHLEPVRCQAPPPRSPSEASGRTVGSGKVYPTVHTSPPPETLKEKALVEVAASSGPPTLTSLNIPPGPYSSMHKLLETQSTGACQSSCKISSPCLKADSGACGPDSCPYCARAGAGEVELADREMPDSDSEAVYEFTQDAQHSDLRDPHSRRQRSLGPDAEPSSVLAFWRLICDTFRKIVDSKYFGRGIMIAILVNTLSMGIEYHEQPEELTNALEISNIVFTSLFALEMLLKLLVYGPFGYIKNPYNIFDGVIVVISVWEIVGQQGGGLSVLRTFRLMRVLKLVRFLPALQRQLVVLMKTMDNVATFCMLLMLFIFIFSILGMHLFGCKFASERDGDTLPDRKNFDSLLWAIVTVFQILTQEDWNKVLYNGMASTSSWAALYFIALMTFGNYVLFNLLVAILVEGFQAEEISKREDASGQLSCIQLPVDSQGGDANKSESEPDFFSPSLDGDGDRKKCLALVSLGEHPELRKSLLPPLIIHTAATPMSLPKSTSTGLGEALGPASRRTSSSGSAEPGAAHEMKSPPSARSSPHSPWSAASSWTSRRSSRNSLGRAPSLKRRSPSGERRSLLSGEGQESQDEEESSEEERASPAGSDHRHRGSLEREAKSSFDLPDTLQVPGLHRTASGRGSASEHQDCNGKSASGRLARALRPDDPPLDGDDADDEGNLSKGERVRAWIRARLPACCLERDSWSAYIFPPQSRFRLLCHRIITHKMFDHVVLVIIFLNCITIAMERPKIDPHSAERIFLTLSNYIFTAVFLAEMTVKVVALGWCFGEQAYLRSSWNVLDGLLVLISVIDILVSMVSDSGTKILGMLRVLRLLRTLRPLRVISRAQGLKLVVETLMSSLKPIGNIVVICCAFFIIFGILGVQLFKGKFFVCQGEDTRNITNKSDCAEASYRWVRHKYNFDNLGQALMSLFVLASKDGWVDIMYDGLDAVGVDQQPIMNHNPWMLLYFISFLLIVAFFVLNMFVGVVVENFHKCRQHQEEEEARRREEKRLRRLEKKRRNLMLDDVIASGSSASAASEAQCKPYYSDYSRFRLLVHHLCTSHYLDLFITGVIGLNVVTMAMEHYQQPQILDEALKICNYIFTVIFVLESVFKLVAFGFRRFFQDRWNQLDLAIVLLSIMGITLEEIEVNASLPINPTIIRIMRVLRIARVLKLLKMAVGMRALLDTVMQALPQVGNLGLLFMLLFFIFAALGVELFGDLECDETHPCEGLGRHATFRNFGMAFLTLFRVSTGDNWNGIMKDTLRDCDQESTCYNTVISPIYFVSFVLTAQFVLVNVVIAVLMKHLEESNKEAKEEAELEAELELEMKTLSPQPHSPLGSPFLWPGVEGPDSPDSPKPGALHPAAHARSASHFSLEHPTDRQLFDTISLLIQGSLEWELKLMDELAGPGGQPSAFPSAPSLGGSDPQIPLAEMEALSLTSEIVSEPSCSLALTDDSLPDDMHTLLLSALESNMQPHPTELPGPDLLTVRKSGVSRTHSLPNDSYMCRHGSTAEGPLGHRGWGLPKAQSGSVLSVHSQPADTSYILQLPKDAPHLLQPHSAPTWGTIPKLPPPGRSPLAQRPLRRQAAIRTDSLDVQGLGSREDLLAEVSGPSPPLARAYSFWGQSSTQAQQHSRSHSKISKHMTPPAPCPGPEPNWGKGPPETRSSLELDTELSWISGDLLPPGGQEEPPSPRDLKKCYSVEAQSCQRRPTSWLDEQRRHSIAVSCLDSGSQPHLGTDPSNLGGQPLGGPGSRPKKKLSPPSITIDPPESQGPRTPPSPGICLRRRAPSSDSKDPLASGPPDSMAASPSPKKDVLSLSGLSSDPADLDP

| Structure (SMILES) | inhibition [1] | inhibition at 101 µM (TREK-1 channel) | inhibition at 10 µM (TREK-1 channel) | block % at 100 μM (TREK-1 channel; Table 2) | block % at 100 μM (TREK-1 channel; Table 3 (value ± spread)) |
| --- | --- | --- | --- | --- | --- |
| O=C(CN1CCN(C[C@@H](O)COc2ccccc2)CC1)NCc1ccccc1 [KKRE10202, (R)-N-benzyl-2-(4-(2-hydroxy-3-phenoxypropyl)piperazin-1-yl)acetamide] | 21.4% | 0.84 ± 1.76% |  |  |  |
| O=C(CN1CCN(C[C@H](O)COc2ccccc2)CC1)NCc1ccccc1 [KKRE10203, (S)-N-benzyl-2-(4-(2-hydroxy-3-phenoxypropyl)piperazin-1-yl)acetamide] | 17% | 38 ± 6.42% | 38% |  |  |
| CC(C)Cc1cc(CNC(=O)CN2CCN(C[C@@H](O)COc3ccc(F)cc3)CC2)nn1-c1ccccc1 [KKRE10213, (R)-2-(4-(3-(4-Fluorophenoxy)-2-hydroxypropyl)piperazin-1-yl)-N-((5-isobutyl-1-phenyl-1H-pyrazol-3-yl)methyl)acetamide] | 77.4% |  | 64.7% |  |  |
| CC(C)Cc1cc(CNC(=O)CN2CCN(C[C@H](O)COc3ccc(F)cc3)CC2)nn1-c1ccccc1 [KKRE10214, (S)-2-(4-(3-(4-Fluorophenoxy)-2-hydroxypropyl)piperazin-1-yl)-N-((5-isobutyl-1-phenyl-1H-pyrazol-3-yl)methyl)acetamide] | 77.5% | 37.5 ± 5.31% |  |  |  |
| Cc1ccc(F)cc1-n1nc(CNC(=O)CN2CCN(C[C@@H](O)COc3ccc(C(F)(F)F)cc3)CC2)cc1CC(C)C [KKRE10216, (R)-N-((1-(5-fluoro-2-methylphenyl)-5-isobutyl-1H-pyrazol-3-yl)methyl)-2-(4-(2-hydoxy-3-(4-(trifluoromethyl)phenoxy)propyl)piperazin-1-yl)acetamide] | 77.4% | 71.4 ± 10.8% |  |  |  |
| CC(C)Cc1cc(CNC(=O)CN2CCN(C[C@@H](O)COc3ccc(C(F)(F)F)cc3)CC2)nn1-c1cc(Cl)cc(Cl)c1 [KKRE10218, (R)-N-((1-(3,5-dichlorophenyl)-5-isobutyl-1H-pyrazol-3-yl)methyl)-2-(4-(2-hydroxy-3-(4-(trifluoromethyl)phenoxy)propyl)piperazin-1-yl)acetamide] | 73.5% | 76.1 ± 5.79% |  |  |  |
| CC(C)Cc1cc(CNC(=O)CN2CCN(C[C@H](O)COc3ccc(C(F)(F)F)cc3)CC2)nn1-c1cc(Cl)cc(Cl)c1 [KKRE10220, (S)-N-((1-(3,5-dichlorophenyl)-5-isobutyl-1H-pyrazol-3-yl)methyl)-2-(4-(2-hydroxy-3-(4-(trifluoromethyl)phenoxy)propyl)piperazin-1-yl)acetamide] | 35.8% | 41.4 ± 12.7% |  |  |  |

Continued, values first:

| inhibition [1] | inhibition at 101 µM (TREK-1 channel) | inhibition at 10 µM (TREK-1 channel) | block % at 100 μM (TREK-1 channel; Table 2) | block % at 100 μM (TREK-1 channel; Table 3 (value ± spread)) | Structure (SMILES) |
| --- | --- | --- | --- | --- | --- |
| 33.9% | 11 ± 2.58% |  |  |  | Cc1ccc(CNC(=O)CN2CCN(C[C@H](O)COc3ccc(C)cc3)CC2)cc1 [KKRE10199, (S)-2-(4-(2-hydroxy-3-(p-tolyloxy)propyl)piperazin-1-yl)-N-(4-methylbenzyl)acetamide] |
| 43.7% | 30.9 ± 3.86% | 30.9% |  |  | Cc1ccc(OC[C@H](O)CN2CCN(CC(=O)NCc3ccc(C(F)(F)F)cc3)CC2)cc1 [KKRE10200, (R)-2-(4-(2-hydroxy-3-(p-tolyloxy)propyl)piperazin-1-yl)-N-(4-(trifluoromethyl)benzyl)acetamide] |
| 55.4% | 25.4 ± 7.87% | 25.4% |  |  | Cc1ccc(OC[C@@H](O)CN2CCN(CC(=O)NCc3ccc(C(F)(F)F)cc3)CC2)cc1 [KKRE10201, (S)-2-(4-(2-hydroxy-3-(p-tolyloxy)propyl)piperazin-1-yl)-N-(4-(trifluoromethyl)benzyl)acetamide] |
| 12.3% | 16.3 ± 12.9% | 57.5% |  |  | Cc1ccc(CNC(=O)CN2CCN(C[C@@H](O)COc3ccccc3)CC2)cc1 [KKRE10204, (R)-2-(4-(2-hydroxy-3-phenoxypropyl)piperazin-1-yl)-N-(4-methylbenzyl)acetamide] |
| 67% | 77.5 ± 5.19% |  | 91.23% | 91.22 ± 1.77% | CC(C)Cc1cc(CNC(=O)CN2CCN(C[C@@H](O)COc3ccc(C(F)(F)F)cc3)CC2)nn1-c1ccccc1 [KKRE10210, (R)-2-(4-(2-Hydroxy-3-(4-(trifluoromethyl)phenoxy)propyl)piperazin-1-yl)-N-((5-isobutyl-1-phenyl-1H-pyrazol-3-yl)methyl)acetamide] |
| 79% | 55.3 ± 6.53% |  |  |  | CC(C)c1cc(CNC(=O)CN2CCN(C[C@@H](O)COc3ccc(C(F)(F)F)cc3)CC2)nn1-c1ccccc1 [KKRE10211, (R)-2-(4-(2-hydroxy-3-(4-(trifluoromethyl)phenoxy)propyl)piperazin-1-yl)-N-((5-isopropyl-1-phenyl-1H-pyrazol-3-yl)methyl)acetamide] |
| 80.9% | 82.1 ± 3.81% |  |  |  | CC(C)Cc1cc(CNC(=O)CN2CCN(C[C@H](O)COc3ccc(C(F)(F)F)cc3)CC2)nn1-c1ccccc1 [KKRE10215, (S)-2-(4-(2-Hydroxy-3-(4-(trifluoromethyl)phenoxy)propyl)piperazin-1-yl)-N-((5-isobutyl-1-phenyl-1H-pyrazol-3-yl)methyl)acetamide] |
| 75.7% | 50.1 ± 10.7% |  |  |  | CC(C)Cc1cc(CNC(=O)CN2CCN(C[C@@H](O)COc3ccc(C(F)(F)F)cc3)CC2)nn1-c1ccc(F)cc1 [KKRE10217, (R)-N-((1-(4-fluorophenyl)-5-isobutyl-1H-pyrazol-3-yl)methyl)-2-(4-(2-hydroxy-3-(4-(trifluoromethyl)phenoxy)propyl)piperazin-1-yl)acetamide] |
| 74.1% | 57 ± 6.08% |  |  |  | CC(C)Cc1cc(CNC(=O)CN2CCN(C[C@H](O)COc3ccc(C(F)(F)F)cc3)CC2)nn1-c1ccc(F)cc1 [KKRE10219, (S)-N-((1-(4-fluorophenyl)-5-isobutyl-1H-pyrazol-3-yl)methyl)-2-(4-(2-hydroxy-3-(4-(trifluoromethyl)phenoxy)propyl)piperazin-1-yl)acetamide] |
